In patent US6232294A, “Neuro-function regulatory agent” (Kabushiki Kaisha Hayashibara Seibutsu Kagaku Kenkyujo, priority 1997, dated 2001):

Key:
[1] = Acute toxicity test; conditions: dose up to about 16 g per kg mouse (maximum challenged), intraperitoneal or oral, observed for a week
Experimental: An adequate amount of "TREHAOSE®" , a crystalline trehalose powder commercialized by Hayashibara Shoji, Inc., Okayama, Japan, was dissolved in physiological saline containing 5 w/w % gum arabic, and the solution was sterilized in usual manner and intraperitoneally injected to ddy-mice, 20-25 g weight, in a group of 10 mice, or orally administered to the mice by using a stomach sonde. […] In parallel similar experiments were conducted using as glycosyl vitamin P "αG HESPERIDIN PA" with a total hesperidin content of 74-78%, d.s.b., a glycosyl hesperidin power commercialized by Hayashibara Shoji, Inc., Okayama, Japan, and "αG RUTIN PS" with a total rutin content of 80-82%, d.s.b., a glycosyl rutin powder commercialized by Hayashibara Shoji, Inc., Okayama, Japan.

[2] = Clinical test in volunteers with chronic fatigue syndrome or slight depression; format: in vivo, human; conditions: experiment conducted similarly with vitamin P
Experimental: A medical technologist conducted the clinical experiment and 24 hours after the final administration asked the therapeutic effect and the side effects of the volunteers, and also asked the therapeutic effect and side effects of the volunteers on the basis of the relief of feeling of fatigue, malaise, loss of appetite, and insomnia, which were accompanied by the diseases. The therapeutic effect was evaluated based on four ranks; "very effective", "effective", "unchanged",and "worsened". The effectivity was expressed by a percentage of the number of volunteers, who answered "very effective" and "effective", to the total number of volunteers.

Row | Molecule | Mortality [1] | Effect as compared with control (in words) [2]
1 | OC[C@H]1O[C@H](O[C@H]2O[C@H](CO)[C@@H](O)[C@H](O)[C@H]2O)[C@H](O)[C@@H](O)[C@@H]1O [TREHAOSE®, α,α-trehalose] | no mouse died | –
2 | vitamin P | – | no significant effect was found as compared with control
